Experiments:
[1] = tested on: BUD-8 human skin fibroblasts; assay: Fibroblast assay: proliferation of BUD-8 skin cell fibroblasts; format: cell-based; conditions: concentration not given
Description: The human skin cell fibroblast line, BUD-8 was obtained prior to each assay from the American Type Culture Collection. This is a fibroblast-like cell line which was originally derived from the normal skin of a person.
BUD-8 cell cultures were expanded for use in 25 cm^2 flasks at 37° C. in an atmosphere of 5% CO2 in air. At approximately 4-5 five day intervals, or when confluence was reached, the cells were passaged. This was accomplished by detaching the cells with a Teflon scraper, washing and reseeding the cells at a lower density into fresh tissue culture flasks.
(§1) The effect of the compound of the present invention on the proliferative capacity of human BUD-8 skin fibroblasts was measured with the use of a ^3 H-thymidine incorporation assay using culture conditions which were similar to those used for a Con-A blastogenesis assay, described previously. Cultured skin cells were detached from the surface of tissue culture flasks mechanically with a Teflon scraper. The cells were washed, resuspended in incubation medium and the viabilities were determined. These cells were then plated in triplicate at a density of 2×10^3 cells/0.1 ml/microtiter well for the proliferation assay and a density of 1×10^4 cells/0.1 ml/microtiter well for the assays to quantitate PGE2 and LTB4. To these cells was added incubation medium containing indomethacin to inhibit prostaglandin production, or nordihydroguaiaretic acid (NDGA) to inhibit leukotriene production (positive controls).
After 3 days of culture, 1 uCi ^3 H-thymidine was added in a 50 ul volume to each culture well of the microtiter plates. Eighteen hours later, each of the BUD-8 cultures was examined morphologically for evidence of compound-induced toxicity such as cell rounding or granularity. The thymidine-pulsed cells were then precipitated and the amount of ^3 H-thymidine incorporated was counted in a liquid scintillation counter.
The concentrations of the compounds of the invention which were used in these assays were:
The incubation medium used for culturing the BUD-8 cells was RPMI-1640 medium containing 10% fetal bovine serum, 100 ug/ml streptomycin, 100 U/ml penicillin, 0.2M Hepes buffer solution, 5×10^-5 M 2-mercaptoethanol and 2 mM glutamine.

[2] = tested on: T lymphocytes (normal mouse spleen cells) stimulated with ConA; assay: Mouse Spleen Cell ConA Blastogenesis Assay; format: cell-based, mouse (C57Bl/6); conditions: control compound, concentration not given
[3] = tested on: LTB4 production by BUD-8 skin cell fibroblasts; assay: LTB4 production by BUD-8 skin cell fibroblasts (radioimmunoassay); format: cell-based, human; conditions: concentration not given
Description: as §1
(§2) After 18 hours of culture, samples of the BUD-8 skin cell supernatants were collected from one set of microtiter plates and frozen until assayed for PGE2 or for LTB4 content using the radioimmunoassays described below.
Levels of LTB4 in aliquots of BUD-8 skin cell cultures supernatants were quantitated by radioimmunoassay (New England Nuclear). Briefly, into each polyproplyene tube were mixed 0.1 ml anti-LTB4, 0.1. ml ^3 H-LTB4 and 0.1 ml LTB4 standard or LTB4 containing sample. The BUD-8 skin cell culture supernatants were used directly in the radioimmunoassay. Tubes were refrigerated overnight. A charcoal solution (0.5 ml of 0.5% charcoal Norit A) was added and each tube was centrifuged. The radioactivity in the supernatant was then counted in a liquid scintillation counter.

[4] = tested on: PGE2 production by BUD-8 skin cell fibroblasts; assay: PGE2 production by BUD-8 skin cell fibroblasts (radioimmunoassay); format: cell-based, human; conditions: concentration not given
Description: as §1, §2
A radioinmunoassay (New England Nuclear) was used to quantitate PGE2 levels in BUD-8 skin cell culture supernatants. Briefly, into each polypropylene tube were mixed 0.1 ml anti-PGE2, 0.1 ml ^125 1-PGE2 and 0.1 ml PGE2 standard or PGE2 containing sample. The BUD-8 skin culture supernatants were diluted 1:2 prior to addition to the radioimmunoassay. Tubes were refrigerated overnight. A polyethylene glycol solution (16%, 6,000 m.w.) was then added to precipitate immune complexes and the radioactivity in the precipitate was counted in a gamma counter.

[5] = tested on: GS-109-V-20 human skin cell fibroblasts; assay: Fibroblast assay: proliferation of GS-109-V-20 skin cell fibroblasts; format: cell-based; conditions: for effect on GS-109-V-20 fibroblast proliferation in words: text
Description: The effect of methyl 3-O-3'-(N',N'-dimethylamino-n-propyl)-6-deoxy-D-glucopyranoside on the proliferative capacity of human GS-109-V-20 skin fibroblasts was measured with the use of ^3 H-thymidine incorporation assay. Cultured skin cells were detached from the surface of tissue culture flasks mechanically with a Teflon scraper. The cells were washed, resuspended in incubation medium and the viabilities determined. These cells were then plated in triplicate at a density of 1×10^3 cells/0.1 ml/microtiter well. To these cells was added 0.1 ml incubation medium containing the methyl 3-O-3'-(N',N'-dimethylamino-n-propyl)-6-deoxy-D-glucopyranoside compound.
(§3) After 3 days of culture, 1#uCi ^3 H-thymidine was added in 50 ul volume to each culture well of the microtiter plates. Eighteen hours later, each of the GS-109-V-20 cultures was examined morphologically for evidence of drug-induced toxicity such as cell rounding or granularity. The ^3 H-thymidine-pulsed cells were then precipitated and the amount of ^3 H-thymidine incorporation was counted on a liquid scintillation counter.
Methyl 3-O-3'-(N',N'-dimethylamino-n-propyl)-6-deoxy-D-glucopyranoside was suspended directly into the medium by extensive sonication, without being filter-sterilized. A range of doses of this compound was used to measure effects of this compound upon GS-109-V-20 cell proliferation. The following doses were used:
The human skin cell fibroblast line, GS-109-V-20, was obtained from the American Type Culture-Collection. […] These cells were selected for use because they are considered to exist in an initiated state, as opposed to being normal or transformed, and have a more extensive population doubling time and survival period in culture than do normal fibroblasts. In this regard, they would more closely reflect the biological characteristics of psoriatic or rheumatoid synovial fibroblasts which also proliferate more extensively than do normal fibroblasts, but not as extensively as immortalized transformed tumor cells.
The number of GS-109-V-20 cells was expanded for use in the described assays by culture in 25 cm^2 flasks at 37° C. in an atmosphere of 5% CO2 in air. At approximately 4-5 day intervals, or when confluence was reached, the cells were passaged. This was accomplished by detaching the cells by trypsinization, washing and reseeding the cells at a lower density into fresh tissue culture flasks.

[6] = tested on: GS-109-V-20 skin cells; assay: Morphological examination of GS-109-V-20 cultures for drug-induced toxicity; format: cell-based, human
Description: as §3

## CC(Cc1ccc(O)c(O)c1)C(C)Cc1ccc(O)c(O)c1 (centres unmarked) [NDGA, nordihydroguaiaretic acid, reference compound]
[1]
  % effect on BUD-8 proliferation (positive control): -5%
  ^3 H-Thymidine uptake by BUD-8 skin cells (positive control): 6,925 ± 313 cpm
[2]; ConA 1 ug/ml
  % effect on ConA blastogenic response (positive control): -14%
  Blastogenic response of normal spleen cells to Con-A (positive control): 47.6 ± 5.0 × 10^-3 cpm
[2]; ConA 4 ug/ml
  % effect on ConA blastogenic response (positive control): -24%
  Blastogenic response of normal spleen cells to Con-A (positive control): 64.1 ± 9.2 × 10^-3 cpm
[3]
  LTB4 in supernatant (positive control): 19.9 ± 1.5 pg LTB4 100 ul supernatant
  calculated LTB4 production/10^5 BUD-8 cells (positive control): 794 pg per 10^5 cells
[3]; 1080 min
  % effect on LTB4 production (positive control): -45%
[4]
  PGE2 in supernatant (positive control): 14.7 ± 0.8 pg PGE2 /50 ul supernatant
  calculated PGE2 production/10^5 BUD-8 cells (positive control): 933 pg per 10^5 cells
[4]; 1080 min
  % effect on PGE2 production (positive control): -8%
[5]; 2 × 10^-6 M Indomethacin, 2 × 10^-6 N NDGA
  ^3 H-Thymidine uptake by GS-109-V-20 skin cells (control compound): 3,179 ± 489 cpm

## COC1O[C@H](C)[C@@H](O)[C@H](OCCCN(C)C)[C@H]1O (stereo partly drawn) [V, Methyl 3-O-3'-(N',N'-dimethylamino-n-propyl)-6-deoxy-D-glucopyranoside]
[6]
  cytotoxicity in GS-109-V-20 cultures, in words: without evidence of cytotoxicity
[5]; 0.001 ug/ml
  ^3 H-Thymidine uptake by GS-109-V-20 skin cells: 2,557 ± 258 cpm
[5]; 0.01 ug/ml
  ^3 H-Thymidine uptake by GS-109-V-20 skin cells: 976 ± 469 cpm
[5]; 0.1 ug/ml
  ^3 H-Thymidine uptake by GS-109-V-20 skin cells: 1,052 ± 177 cpm
[5]; 1 ug/ml
  ^3 H-Thymidine uptake by GS-109-V-20 skin cells: 1,237 ± 301 cpm
[5]; 2.5 ug/ml
  ^3 H-Thymidine uptake by GS-109-V-20 skin cells: 1,044 ± 106 cpm
[5]; 10 ug/ml
  ^3 H-Thymidine uptake by GS-109-V-20 skin cells: 900 ± 189 cpm
[5]; 25 ug/ml
  ^3 H-Thymidine uptake by GS-109-V-20 skin cells: 946 ± 41 cpm
[5]; 100 ug/ml
  ^3 H-Thymidine uptake by GS-109-V-20 skin cells: 647 ± 541 cpm
[5]; Homo sapiens, Fibroblast, 0.001 ug/ml, read-out: % effect on GS-109-V-20 proliferation
  inhibition at 0.001 µg/mL: 12%
[5]; Homo sapiens, Fibroblast, 0.01 ug/ml, read-out: % effect on GS-109-V-20 proliferation
  inhibition at 0.01 µg/mL: 66%
[5]; Homo sapiens, Fibroblast, 0.1 ug/ml, read-out: % effect on GS-109-V-20 proliferation
  inhibition at 0.1 µg/mL: 64%
[5]; Homo sapiens, Fibroblast, 1 ug/ml, read-out: % effect on GS-109-V-20 proliferation
  inhibition at 1 µg/mL: 58%
[5]; Homo sapiens, Fibroblast, 2.5 ug/ml, read-out: % effect on GS-109-V-20 proliferation
  inhibition at 2.5 µg/mL: 64%
[5]; Homo sapiens, Fibroblast, 10 ug/ml, read-out: % effect on GS-109-V-20 proliferation
  inhibition at 10 µg/mL: 69%
[5]; Homo sapiens, Fibroblast, 25 ug/ml, read-out: % effect on GS-109-V-20 proliferation
  inhibition at 25 µg/mL: 68%
[5]; Homo sapiens, Fibroblast, 100 ug/ml, read-out: % effect on GS-109-V-20 proliferation
  inhibition at 100 µg/mL: 78%
[5]; listed as Methyl 3-O-3'-(N',N'-dimethylamino-n-propyl)-6-deoxy-D-glucopyranoside
  effect on GS-109-V-20 fibroblast proliferation in words: inhibitory effects on the proliferation of GS-109-V-20 human skin cell fibroblasts
[5]; listed as methyl 3-O-3'-(N',N'-dimethylamino-n-propyl)-6-deoxy-D-glucopyranoside
  effect on GS-109-V-20 fibroblast proliferation in words: A significant inhibitory effect was observed in a non-dose-dependent manner

— patent publication US5298494A, “Monosaccharides having anti-proliferation and anti-inflammatory activity, compositions and uses thereof” (Greenwich Pharmaceuticals Incorporated, priority 1993, dated 1994)
